In patent US20090018120A1, “AMIDINE DERIVATIVES AND THEIR APPLICATIONS AS A MEDICAMENT” (priority 2005, published 2009):
Values joined by “and” are separate entries in the source; they are usually repeats but may differ in a detail not shown here. Equal entries are not always repeated. Where two headings read alike, the source gives them in different places.

How the values were obtained:
[1] = tested on: neuromast ciliated cells of Zebrafish; test: Ototoxicity induced by gentamycin in Zebrafish: protection of neuromast ciliated cells (DASPEI staining); assay type: in vivo; details: for EC50: Danio rerio, 0, 25, 50, 100 μM, co-treatment with gentamycin 1 μg/ml, concentration which allows 50% of stained cells to be visualized, read-out: EC50 μM (survival of the ciliated cells in % of the control); for control % (% staining signal of the ciliated cells): positive control = 100%
Excerpt: Ototoxicity Induced after a Treatment with Gentamycin: Protective Effect of the Compounds According to the Invention
Principle of the test: gentamycin and other aminoglycosides cause damage to ciliated cells and a hearing loss in humans. Zebrafish have sensory organs known as neuromasts on the surface of their body. These neuromast ciliated cells are structurally and functionally similar to the internal ciliated cells of the human ear. In these fish, the neuromast ciliated cells can be stained with DASPEI (2,4-dimethyl-aminostyryl-N-ethyl pyridinium iodide) and this staining reflects the number of functional ciliated cells.
Damage to the internal ciliated cells is induced in the Zebrafish with a gentamycin treatment. In order to test the protective effect of the compound to be tested on ciliated cells damaged by gentamycin, the compound was administered as a co-treatment with gentamycin. The internal ciliated cells are then stained and quantified.
The study is carried out on 5-day old fish, incubated with 1 μg/ml of gentamycin for 24 hours in the presence or the absence of the compound. Controls are carried out in parallel; vehicle alone (1% DMSO; positive control). Fish treated with gentamycin only are the negative controls.
The EC50 (concentration of the substance to be tested which protects 50% of the cells from cell death) is calculated from this concentration-effect.
The DASPEI staining is carried out to visualize the ciliated cells in vivo (n=6 per group). Morphometric analysis is used to quantify the staining signal of the ciliated cells. The DASPEI staining signal of the positive controls was defined as 100%.
Positive control (Zebrafish-1% DMSO); Negative control (Zebrafish-1% DMSO-gentamycin 1 μg/ml) and effect of the products (Zebrafish-1% DMSO-gentamycin-compound). Experiment carried out on 6 animals per group.

[2] = tested on: calpain; test: Effect in situ on the calpain enzymatic activity of human skeletal cells (SKM), maitotoxin-activated, Suc-Leu-Tyr-AMC substrate; assay type: cell-based; details: read-out: IC50 (concentration which inhibits 50% of the enzyme activity), SKM myotubes, 3 h at 30° C.
Description: Effect In Situ of the Compounds According to the Invention on the Calpain Enzymatic Activity of Human Skeletal Cells (SKM)
The principle of the test is the following: maitotoxin is a toxin which causes the opening of the calcium channels of cells. The resulting intra-cellular flow of calcium is at the origin of the death of the cell. During this process of cell death, a cysteine-dependent protease, calpain, is activated. The test consists of incubating the cells in the presence of maitotoxin, in order to activate the calpain enzyme, and adding a calpain substrate which fluoresces when the enzyme cleaves this substrate. Finally, calpain inhibitors are tested.
The myoblasts are seeded at 2500 cells per well in 96-well plates in a DMEM 10% FCS (foetal calf serum) culture medium supplemented with amphotericin B, human recombinant epidermal growth factor and dexamethasone. Three days after seeding, the cells have adhered to the bottom of the well, the differentiation of the cells to myotubes is induced by adding 100 μl of DMEM F12 medium containing 2% horse serum. […] The background noise is determined by preparing additional control wells without MTX. […] The plates are stirred, the fluorescence is read at 380/460 nm using a so-called Victor device at time zero. […]
The fluorescence values make it possible to calculate a concentration-effect for each of the compounds. […]

[3] = tested on: human skeletal cells (SKM); test: Protective effect on cell death induced by maitotoxin on human skeletal cells (SKM), WST-1; assay type: cell-based; details: read-out: EC50 (concentration which protects 50% of the cells from cell death)
Excerpt: Protective Effect of the Compounds According to the Invention on Cell Death Induced by Maitotoxin on Human Skeletal Cells (SKM)
The principle of the test is the following: maitotoxin is a toxin which causes the opening of the calcium channels of cells. The resulting intra-cellular flow of calcium is at the origin of the death of the cell. During this process of cell death, a cysteine-dependent protease, calpain, is activated, and an abundance of free radicals is produced. The test consists of incubating the cells in the presence of the molecules to be tested, in order to delay or inactivate cell death and thus determine the protective effect.
The myoblasts are seeded at 2500 cells per well in 96-well plates in a DMEM 10% FCS (foetal calf serum) culture medium supplemented with amphotericin B, human recombinant epidermal growth factor and dexamethasone. […]
After an incubation time of 3 h or 96 h, the culture medium is replaced by a DMEM 10% FCS medium supplemented by 10% WST-1, WST-1 (Roche, reference 1644807) is a reagent which stains metabolically active cells, i.e. live cells. […] Then the number of live cells is determined using a Perkin-Elmer Wallac Envision 2101 device by reading the absorbance at 450 nm. The concentration-effect of the products on the cell survival fraction is then calculated. […]

[4] = compound 50 μM as co-treatment with gentamycin 1 μg/ml

CC(=O)OC1OCC[C@@H]1NC(=O)[C@H](CC(C)C)NC(=N)c1ccc2c(c1)Nc1ccccc1S2.I (stereo partly drawn) [Example 4, (3S)-3-({N-[imino(10H-phenothiazin-2-yl)methyl]-L-leucyl}amino)tetrahydrofuran-2-yl acetate hydroiodide]
EC50 [1]: 51 µM
protection of the ciliated cells damaged by the gentamycin treatment [1, 4]: 36.2%
control % (% staining signal of the ciliated cells) ([1]; compound 50 μM as co-treatment with gentamycin 1 μg/ml, 24 hours, 5-day old fish, acetate hydroiodide): 49% and 49 ± 5%

CC(C)C[C@H](NC(=N)c1ccc2c(c1)Nc1ccccc1S2)C(=O)N[C@H]1CCOC1O.I (stereo partly drawn) [Example 5, N^1-[(3S)-2-hydroxytetrahydrofuran-3-yl]-N^2-[imino(10H-phenothiazin-2-yl)methyl]-L-leucinamide hydroiodide]
IC50 [2]: < 20 µM
EC50 [1]: 32 µM
protection of the ciliated cells damaged by the gentamycin treatment [1, 4]: 40%
control % (% staining signal of the ciliated cells) ([1]; compound 50 μM as co-treatment with gentamycin 1 μg/ml, 24 hours, 5-day old fish, hydroiodide): 52% and 52 ± 10%

C[C@H]1C[C@@H]2[C@H]([C@@H](O)C[C@@]3(C)[C@H]2CC[C@]3(O)C(=O)CO)[C@@]2(C)C=CC(=O)C=C12 [a-methylprednisolone]
EC50 ([3]; after incubation for 3 hours in the presence of maitotoxin): 354 µM
EC50 ([3]; after incubation for 96 hours in the presence of maitotoxin): 196 µM

Gentamycin [reference compound]
loss of the ciliated cells following treatment with gentamycin ([1]; gentamycin 1 μg/ml alone, 24 hours): 80%
control % (% staining signal of the ciliated cells) ([1]; gentamycin 1 μg/ml alone, 24 hours (negative control)): 20 ± 0.6%
control % (% staining signal of the ciliated cells) ([1]; gentamycin 1 μg/ml alone, 24 hours (negative control), listed as gentamycin): 20%
